Publication PMC6222329 (Molecules : A Journal of Synthetic Chemistry and Natural …, 2018)

Columns and labels:
Assay type in all cases: biochemical
[1] = target: T1, BChE (Equine) (Equus caballus, UniProt P81908); assay: biochemical
T1 construct: purchased Sigma-Aldrich (Steinheim, Germany)
Experimental: (§1) The assay was performed in two steps.
(§2) All enzymes were obtained from Sigma-Aldrich (Steinheim, Germany). Ellman’s reagent and the substrates were obtained from Fluka (Buchs, Switzerland). The chemicals used to prepare the buffer solution were purchased from Merck (Darmstadt, Germany).
(§3) The enzyme inhibitory activities of the synthesized compounds were investigated by applying Ellman’s method. Enzyme solutions were dissolved in gelatin solution (1%; 2.5 units/mL). […] Then, the reaction was initiated by the addition of Ellman’s reagent 5,5′-Dithiobis(2-nitrobenzoic acid) (DTNB; 20 µL/well, 10 mM) and the substrate (10 µL/well, 75 mM). […] The enzyme solution was processed as a control. All readings were adjusted with blank-reading. All assays were performed in four independent wells. […] Absorbance differences between the two readings were taken, and percentage inhibition rates were calculated according to the following formula: % Inhibition=[(A(C)−A(B))−(A(I)−A(B))]/(A(C)−A(B))×100.
(§4) • Blank (B): the well in which the inhibitor compound and substrate were not added; • Control (C): the well where the inhibitor compound was not added; • A(B): the difference in absorbance reading for the blank; • A(C): the difference in absorbance reading for the control; • A(I): the difference in absorbance reading for the inhibitor compounds.

[2] = target: T2, AChE (Human) (Homo sapiens, UniProt P22303); assay: AChE inhibition, Ellman's method
T2 construct: purchased Sigma-Aldrich (Steinheim, Germany)
Experimental: as §1, §2, §3, §4

[3] = target: T3, AChE (Electrophorus electricus) (Electrophorus electricus, UniProt O42275); assay: AChE inhibition, Ellman's method
T3 construct: purchased Sigma-Aldrich (Steinheim, Germany)
Experimental: as §1, §2, §3, §4

[4] = target: T4, BChE (Human) (Homo sapiens, UniProt P06276); assay: BChE inhibition, Ellman's method
T4 construct: purchased Sigma-Aldrich (Steinheim, Germany)
Experimental: as §1, §2, §3, §4

[5] = read-out: BChE (Equine) inhibitory activity (%) ± SD

T1 sequence (P81908 whole entry): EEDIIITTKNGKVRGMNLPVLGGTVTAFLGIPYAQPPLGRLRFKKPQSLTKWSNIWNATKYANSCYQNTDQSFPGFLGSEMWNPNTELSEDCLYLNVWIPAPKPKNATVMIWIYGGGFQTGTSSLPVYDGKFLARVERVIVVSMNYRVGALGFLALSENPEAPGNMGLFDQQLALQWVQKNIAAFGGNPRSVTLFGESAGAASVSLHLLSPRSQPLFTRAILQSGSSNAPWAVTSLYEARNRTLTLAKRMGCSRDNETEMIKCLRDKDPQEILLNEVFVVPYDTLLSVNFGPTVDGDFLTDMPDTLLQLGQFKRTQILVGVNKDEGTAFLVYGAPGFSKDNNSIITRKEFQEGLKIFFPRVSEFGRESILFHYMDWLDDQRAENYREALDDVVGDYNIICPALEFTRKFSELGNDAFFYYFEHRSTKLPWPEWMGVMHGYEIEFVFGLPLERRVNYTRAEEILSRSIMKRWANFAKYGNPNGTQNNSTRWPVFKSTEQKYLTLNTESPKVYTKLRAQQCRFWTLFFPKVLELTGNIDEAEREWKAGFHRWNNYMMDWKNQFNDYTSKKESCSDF
T3 sequence (O42275 24-633): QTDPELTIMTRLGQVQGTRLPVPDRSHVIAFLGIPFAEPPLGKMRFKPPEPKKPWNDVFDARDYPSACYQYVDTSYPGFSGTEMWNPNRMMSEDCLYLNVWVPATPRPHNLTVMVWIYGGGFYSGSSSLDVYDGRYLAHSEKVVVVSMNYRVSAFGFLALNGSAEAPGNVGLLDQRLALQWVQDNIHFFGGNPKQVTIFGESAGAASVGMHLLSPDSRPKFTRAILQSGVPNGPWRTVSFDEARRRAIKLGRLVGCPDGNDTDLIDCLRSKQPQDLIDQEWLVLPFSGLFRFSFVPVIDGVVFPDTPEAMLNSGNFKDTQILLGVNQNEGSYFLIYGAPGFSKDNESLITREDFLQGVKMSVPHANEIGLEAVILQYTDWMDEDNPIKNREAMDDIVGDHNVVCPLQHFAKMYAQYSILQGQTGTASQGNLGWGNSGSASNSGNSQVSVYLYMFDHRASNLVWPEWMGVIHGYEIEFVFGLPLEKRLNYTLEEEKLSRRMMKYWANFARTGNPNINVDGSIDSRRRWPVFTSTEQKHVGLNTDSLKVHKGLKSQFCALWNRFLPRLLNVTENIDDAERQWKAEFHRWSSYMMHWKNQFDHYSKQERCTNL
T4 sequence (P06276 29-602): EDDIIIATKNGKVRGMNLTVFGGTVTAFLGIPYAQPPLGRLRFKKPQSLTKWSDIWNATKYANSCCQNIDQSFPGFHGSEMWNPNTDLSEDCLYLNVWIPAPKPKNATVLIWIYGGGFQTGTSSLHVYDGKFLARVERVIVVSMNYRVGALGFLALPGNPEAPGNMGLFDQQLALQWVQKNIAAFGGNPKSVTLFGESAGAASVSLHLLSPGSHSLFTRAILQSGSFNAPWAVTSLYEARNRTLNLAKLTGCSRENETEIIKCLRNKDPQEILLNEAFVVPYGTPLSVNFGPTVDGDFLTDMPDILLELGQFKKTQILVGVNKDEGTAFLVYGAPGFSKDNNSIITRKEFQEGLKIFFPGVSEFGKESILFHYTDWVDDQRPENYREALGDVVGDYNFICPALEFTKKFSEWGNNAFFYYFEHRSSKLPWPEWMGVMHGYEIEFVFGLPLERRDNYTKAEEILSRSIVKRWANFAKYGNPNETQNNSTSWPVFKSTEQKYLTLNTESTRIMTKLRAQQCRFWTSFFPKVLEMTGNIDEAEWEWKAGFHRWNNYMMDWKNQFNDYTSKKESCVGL
T2 sequence (P22303 32-614): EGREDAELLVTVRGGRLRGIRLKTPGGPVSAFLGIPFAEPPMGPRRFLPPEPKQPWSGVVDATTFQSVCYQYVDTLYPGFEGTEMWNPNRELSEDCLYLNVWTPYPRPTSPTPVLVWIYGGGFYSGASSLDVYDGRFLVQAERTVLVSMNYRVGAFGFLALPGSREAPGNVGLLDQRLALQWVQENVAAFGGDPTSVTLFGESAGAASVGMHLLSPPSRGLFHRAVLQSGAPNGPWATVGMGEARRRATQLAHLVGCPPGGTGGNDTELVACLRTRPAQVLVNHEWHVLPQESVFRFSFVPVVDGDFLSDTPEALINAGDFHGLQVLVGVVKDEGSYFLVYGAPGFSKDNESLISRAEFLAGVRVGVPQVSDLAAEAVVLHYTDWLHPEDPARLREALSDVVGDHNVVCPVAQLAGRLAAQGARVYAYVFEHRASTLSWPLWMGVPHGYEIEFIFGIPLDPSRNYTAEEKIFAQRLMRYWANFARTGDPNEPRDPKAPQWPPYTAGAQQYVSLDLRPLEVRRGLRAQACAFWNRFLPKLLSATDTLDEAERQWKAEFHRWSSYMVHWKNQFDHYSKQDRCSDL

For `O=C(CSC(=S)N1CCN(c2ncccn2)CC1)Nc1c2ccccc2nc2ccccc12` [Compound 4j, 2-(9-Acridinylamino)-2-oxoethyl 4-(pyrimidin-2-yl)piperazine-1-carbodithioate], the “BChE (Equine) inhibitory activity (%) ± SD” value ([1]; 10^-3 M) was 92.87±2.84%, the “BChE (Equine) inhibitory activity (%) ± SD” value ([1]; 10^-4 M) was 27.86 ± 1.07% and the “AChE (Human) inhibitory activity (%) ± SD” value ([2]; 10^-3 M) was 66.71±1.06%. For the same molecule, the “AChE (Human) inhibitory activity (%) ± SD” value ([2]; 10^-4 M) was 5.97 ± 0.22%, the “AChE (Electrophorus electricus) inhibitory activity (%) ± SD” value ([3]; 10^-3 M) was 69.08±1.67% and the “AChE (Electrophorus electricus) inhibitory activity (%) ± SD” value ([3]; 10^-4 M) was 2.88 ± 0.18%. The “BChE (Human) inhibitory activity (%) ± SD” value ([4]; 10^-3 M) was 90.51±2.18% and the “BChE (Human) inhibitory activity (%) ± SD” value ([4]; 10^-4 M) was 30.77 ± 1.20%.
`O=C(CSC(=S)N1CCN(Cc2ccccc2)CC1)Nc1c2ccccc2nc2ccccc12` [Compound 4k, 2-(9-Acridinylamino)-2-oxoethyl 4-benzylpiperazine-1-carbodithioate] was tested, and the “BChE (Equine) inhibitory activity (%) ± SD” value ([1]; 10^-3 M) was 74.62±2.75%, the “BChE (Equine) inhibitory activity (%) ± SD” value ([1]; 10^-4 M) was 25.14 ± 1.42% and the “AChE (Human) inhibitory activity (%) ± SD” value ([2]; 10^-3 M) was 59.17±1.11%. For the same molecule, the “AChE (Human) inhibitory activity (%) ± SD” value ([2]; 10^-4 M) was 7.21 ± 0.18%, the “AChE (Electrophorus electricus) inhibitory activity (%) ± SD” value ([3]; 10^-3 M) was 58.74±1.69% and the “AChE (Electrophorus electricus) inhibitory activity (%) ± SD” value ([3]; 10^-4 M) was 8.62 ± 0.22%. The “BChE (Human) inhibitory activity (%) ± SD” value ([4]; 10^-3 M) was 70.98±2.39% and the “BChE (Human) inhibitory activity (%) ± SD” value ([4]; 10^-4 M) was 20.65 ± 1.20%.
`O=C(CSC(=S)N1CCN(C2CCCCC2)CC1)Nc1c2ccccc2nc2ccccc12` [Compound 4l, 2-(9-Acridin-ylamino)-2-oxoethyl 4-cyclohexylpiperazine-1-carbodithioate] was tested, and the “BChE (Equine) inhibitory activity (%) ± SD” value ([1]; 10^-3 M) was 84.88±3.34%, the “BChE (Equine) inhibitory activity (%) ± SD” value ([1]; 10^-4 M) was 45.88 ± 1.62% and the “AChE (Human) inhibitory activity (%) ± SD” value ([2]; 10^-3 M) was 58.33±1.39%. The “AChE (Human) inhibitory activity (%) ± SD” value ([2]; 10^-4 M) was 7.29 ± 0.18%, the “AChE (Electrophorus electricus) inhibitory activity (%) ± SD” value ([3]; 10^-3 M) was 56.11±2.46% and the “AChE (Electrophorus electricus) inhibitory activity (%) ± SD” value ([3]; 10^-4 M) was 3.90 ± 0.09%. For the same molecule, the “BChE (Human) inhibitory activity (%) ± SD” value ([4]; 10^-3 M) was 85.71±2.40% and the “BChE (Human) inhibitory activity (%) ± SD” value ([4]; 10^-4 M) was 42.60 ± 1.53%.
For `O=C(CSC(=S)N1CCN(c2ccc(F)cc2)CC1)Nc1c2ccccc2nc2ccccc12` [Compound 4p, 2-(9-Acridinylamino)-2-oxoethyl 4-(4-fluorophenyl)piperazine-1-carbodithioate], the “BChE (Equine) inhibitory activity (%) ± SD” value ([1]; 10^-3 M) was 93.27±3.07%, the “BChE (Equine) inhibitory activity (%) ± SD” value ([1]; 10^-4 M) was 48.65 ± 1.14% and the “AChE (Human) inhibitory activity (%) ± SD” value ([2]; 10^-3 M) was 96.90±2.17%. The “AChE (Human) inhibitory activity (%) ± SD” value ([2]; 10^-4 M) was 49.51 ± 1.50%, the “AChE (Electrophorus electricus) inhibitory activity (%) ± SD” value ([3]; 10^-3 M) was 98.66±2.98% and the “AChE (Electrophorus electricus) inhibitory activity (%) ± SD” value ([3]; 10^-4 M) was 48.40 ± 1.18%. The “BChE (Human) inhibitory activity (%) ± SD” value ([4]; 10^-3 M) was 92.55±2.51% and the “BChE (Human) inhibitory activity (%) ± SD” value ([4]; 10^-4 M) was 40.71 ± 1.08%.
`O=C(CSC(=S)N1CCN(C(=O)c2ccco2)CC1)Nc1c2ccccc2nc2ccccc12` [Compound 4q, 2-(9-Acridinylamino)-2-oxoethyl 4-(furan-2-carbonyl)piperazine-1-carbodithioate] was tested, and the “BChE (Equine) inhibitory activity (%) ± SD” value ([1]; 10^-3 M) was 92.00±3.44%, the “BChE (Equine) inhibitory activity (%) ± SD” value ([1]; 10^-4 M) was 39.90 ± 1.36% and the “AChE (Human) inhibitory activity (%) ± SD” value ([2]; 10^-3 M) was 70.29±1.18%. For the same molecule, the “AChE (Human) inhibitory activity (%) ± SD” value ([2]; 10^-4 M) was 20.28 ± 0.51%, the “AChE (Electrophorus electricus) inhibitory activity (%) ± SD” value ([3]; 10^-3 M) was 68.60±1.57% and the “AChE (Electrophorus electricus) inhibitory activity (%) ± SD” value ([3]; 10^-4 M) was 16.35 ± 0.39%. For the same molecule, the “BChE (Human) inhibitory activity (%) ± SD” value ([4]; 10^-3 M) was 95.29±2.16% and the “BChE (Human) inhibitory activity (%) ± SD” value ([4]; 10^-4 M) was 42.48 ± 1.22%.
In the case of `COc1cc2c(cc1OC)C(=O)C(CC1CCN(Cc3ccccc3)CC1)C2` (stereo not shown) [Donepezil, reference compound], the inhibition at 0.001 µM [1, 5] is reported as 9.23 ± 0.08%, the inhibition at 0.01 µM [1, 5] is reported as 15.3 ± 0.61% and the inhibition at 0.1 µM [1, 5] is reported as 38.1 ± 0.89%. It also gave an inhibition at 1 µM [1, 5] of 54.3 ± 1.16%, an inhibition at 10 µM [1, 5] of 59.2 ± 1.54% and an inhibition at 100 µM [1, 5] of 71.7 ± 2.16%. For the same molecule, the inhibition at 1000 µM [1, 5] was 82.2 ± 2.91%, the inhibition at 1000 µM ([4]; 10^-3 M, read-out: BChE (Human) inhibitory activity (%) ± SD) was 85.2 ± 2.01% and the inhibition at 100 µM ([4]; 10^-4 M, read-out: BChE (Human) inhibitory activity (%) ± SD) was 76.5 ± 2.08%. For the same molecule, the inhibition at 10 µM ([4]; 10^-5 M, read-out: BChE (Human) inhibitory activity (%) ± SD) was 60.2 ± 1.37%, the inhibition at 1 µM ([4]; 10^-6 M, read-out: BChE (Human) inhibitory activity (%) ± SD) was 52.5 ± 1.05% and the inhibition at 0.1 µM ([4]; 10^-7 M, read-out: BChE (Human) inhibitory activity (%) ± SD) was 32.7 ± 0.95%.
